# Measurements taken from publication PMC3082441 (Journal of medicinal chemistry, 2008).
# Read-outs that look alike come from different tables or passages of the source.
# How the values were obtained:
# human sAC = details: read-out: reported IC50 against human sAC; cited from earlier work
# CyaC [1] = target: T1, CyaC (Limnospira platensis, UniProt O32393); details: cited from earlier work
# [2] = tested on: endogenous tmACs expressed in HEK293T cells; assay type: biochemical, mammalian; details: 100 μM compound
# CyaC [3] = target: T1, CyaC
# AC1 = AC1 (Homo sapiens, UniProt Q08828); details: 100 μM compound; forskolin-stimulated; transfected HEK293T lysate
# Chain of AC1 (Q08828 whole entry): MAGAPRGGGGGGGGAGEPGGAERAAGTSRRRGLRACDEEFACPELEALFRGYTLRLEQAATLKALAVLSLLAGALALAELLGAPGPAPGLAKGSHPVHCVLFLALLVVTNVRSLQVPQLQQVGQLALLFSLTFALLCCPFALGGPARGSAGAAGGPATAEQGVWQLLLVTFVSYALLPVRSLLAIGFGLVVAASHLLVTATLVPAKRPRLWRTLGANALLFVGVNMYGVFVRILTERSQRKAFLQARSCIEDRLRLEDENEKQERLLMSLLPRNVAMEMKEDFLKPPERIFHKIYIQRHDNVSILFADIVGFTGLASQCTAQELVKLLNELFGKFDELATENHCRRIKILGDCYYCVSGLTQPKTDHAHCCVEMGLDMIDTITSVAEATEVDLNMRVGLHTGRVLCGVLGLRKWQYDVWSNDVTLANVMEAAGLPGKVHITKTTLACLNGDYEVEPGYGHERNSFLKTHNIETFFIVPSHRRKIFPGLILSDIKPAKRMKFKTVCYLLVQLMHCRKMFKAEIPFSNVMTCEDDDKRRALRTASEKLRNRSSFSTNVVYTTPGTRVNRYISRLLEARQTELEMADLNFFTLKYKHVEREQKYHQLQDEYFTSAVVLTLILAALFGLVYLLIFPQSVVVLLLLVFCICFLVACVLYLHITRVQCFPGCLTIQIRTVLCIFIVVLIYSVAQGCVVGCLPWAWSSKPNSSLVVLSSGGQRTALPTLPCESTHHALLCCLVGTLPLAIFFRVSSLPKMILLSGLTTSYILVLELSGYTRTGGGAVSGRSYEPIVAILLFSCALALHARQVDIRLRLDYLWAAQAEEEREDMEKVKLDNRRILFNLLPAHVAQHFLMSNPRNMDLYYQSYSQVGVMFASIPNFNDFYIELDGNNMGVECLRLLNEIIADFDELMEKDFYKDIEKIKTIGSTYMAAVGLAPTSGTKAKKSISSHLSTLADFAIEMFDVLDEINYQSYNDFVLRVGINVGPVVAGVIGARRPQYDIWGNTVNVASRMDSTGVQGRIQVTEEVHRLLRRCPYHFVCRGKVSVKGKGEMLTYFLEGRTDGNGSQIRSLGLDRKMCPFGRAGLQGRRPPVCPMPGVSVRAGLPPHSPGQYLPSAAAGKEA
# AC5 = AC5 (Homo sapiens, UniProt O95622); details: 100 μM compound; forskolin-stimulated; transfected HEK293T lysate
# Chain of AC5 (O95622 whole entry, species assumed): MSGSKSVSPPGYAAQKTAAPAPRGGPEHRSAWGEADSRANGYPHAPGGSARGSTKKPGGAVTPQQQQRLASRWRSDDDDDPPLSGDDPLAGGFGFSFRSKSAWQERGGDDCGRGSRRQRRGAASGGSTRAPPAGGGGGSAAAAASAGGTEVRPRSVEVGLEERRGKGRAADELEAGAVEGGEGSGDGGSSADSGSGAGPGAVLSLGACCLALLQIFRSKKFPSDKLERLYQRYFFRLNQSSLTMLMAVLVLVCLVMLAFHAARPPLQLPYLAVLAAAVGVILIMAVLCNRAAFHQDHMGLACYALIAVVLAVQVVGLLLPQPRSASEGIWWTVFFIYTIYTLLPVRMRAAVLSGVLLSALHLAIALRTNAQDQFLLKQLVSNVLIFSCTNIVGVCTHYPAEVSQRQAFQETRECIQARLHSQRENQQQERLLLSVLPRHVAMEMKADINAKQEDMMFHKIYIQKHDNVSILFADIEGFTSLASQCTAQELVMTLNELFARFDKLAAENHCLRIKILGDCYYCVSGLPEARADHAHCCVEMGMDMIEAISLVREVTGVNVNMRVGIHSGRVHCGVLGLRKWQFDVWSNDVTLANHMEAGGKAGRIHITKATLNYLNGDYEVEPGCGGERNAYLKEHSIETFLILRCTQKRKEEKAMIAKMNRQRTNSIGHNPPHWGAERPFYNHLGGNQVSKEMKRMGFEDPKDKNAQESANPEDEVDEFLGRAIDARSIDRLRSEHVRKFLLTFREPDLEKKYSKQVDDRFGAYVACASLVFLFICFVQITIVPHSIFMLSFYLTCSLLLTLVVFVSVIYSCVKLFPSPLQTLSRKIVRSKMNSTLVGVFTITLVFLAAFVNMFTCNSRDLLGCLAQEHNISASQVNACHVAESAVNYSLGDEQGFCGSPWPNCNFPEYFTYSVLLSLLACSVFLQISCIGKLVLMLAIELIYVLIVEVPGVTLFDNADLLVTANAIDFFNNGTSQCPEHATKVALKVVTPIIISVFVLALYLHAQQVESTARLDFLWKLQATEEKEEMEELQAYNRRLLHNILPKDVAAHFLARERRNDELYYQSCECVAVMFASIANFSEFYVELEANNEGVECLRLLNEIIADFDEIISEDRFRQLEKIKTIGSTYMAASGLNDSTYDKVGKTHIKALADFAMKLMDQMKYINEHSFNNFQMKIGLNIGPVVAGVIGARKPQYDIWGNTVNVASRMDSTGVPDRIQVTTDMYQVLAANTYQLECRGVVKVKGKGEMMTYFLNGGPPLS
# AC9 = target: T2, AC9 (Homo sapiens, UniProt O60503); details: 100 μM compound, transfected HEK293T lysate
# T2 sequence (O60503 1-1353): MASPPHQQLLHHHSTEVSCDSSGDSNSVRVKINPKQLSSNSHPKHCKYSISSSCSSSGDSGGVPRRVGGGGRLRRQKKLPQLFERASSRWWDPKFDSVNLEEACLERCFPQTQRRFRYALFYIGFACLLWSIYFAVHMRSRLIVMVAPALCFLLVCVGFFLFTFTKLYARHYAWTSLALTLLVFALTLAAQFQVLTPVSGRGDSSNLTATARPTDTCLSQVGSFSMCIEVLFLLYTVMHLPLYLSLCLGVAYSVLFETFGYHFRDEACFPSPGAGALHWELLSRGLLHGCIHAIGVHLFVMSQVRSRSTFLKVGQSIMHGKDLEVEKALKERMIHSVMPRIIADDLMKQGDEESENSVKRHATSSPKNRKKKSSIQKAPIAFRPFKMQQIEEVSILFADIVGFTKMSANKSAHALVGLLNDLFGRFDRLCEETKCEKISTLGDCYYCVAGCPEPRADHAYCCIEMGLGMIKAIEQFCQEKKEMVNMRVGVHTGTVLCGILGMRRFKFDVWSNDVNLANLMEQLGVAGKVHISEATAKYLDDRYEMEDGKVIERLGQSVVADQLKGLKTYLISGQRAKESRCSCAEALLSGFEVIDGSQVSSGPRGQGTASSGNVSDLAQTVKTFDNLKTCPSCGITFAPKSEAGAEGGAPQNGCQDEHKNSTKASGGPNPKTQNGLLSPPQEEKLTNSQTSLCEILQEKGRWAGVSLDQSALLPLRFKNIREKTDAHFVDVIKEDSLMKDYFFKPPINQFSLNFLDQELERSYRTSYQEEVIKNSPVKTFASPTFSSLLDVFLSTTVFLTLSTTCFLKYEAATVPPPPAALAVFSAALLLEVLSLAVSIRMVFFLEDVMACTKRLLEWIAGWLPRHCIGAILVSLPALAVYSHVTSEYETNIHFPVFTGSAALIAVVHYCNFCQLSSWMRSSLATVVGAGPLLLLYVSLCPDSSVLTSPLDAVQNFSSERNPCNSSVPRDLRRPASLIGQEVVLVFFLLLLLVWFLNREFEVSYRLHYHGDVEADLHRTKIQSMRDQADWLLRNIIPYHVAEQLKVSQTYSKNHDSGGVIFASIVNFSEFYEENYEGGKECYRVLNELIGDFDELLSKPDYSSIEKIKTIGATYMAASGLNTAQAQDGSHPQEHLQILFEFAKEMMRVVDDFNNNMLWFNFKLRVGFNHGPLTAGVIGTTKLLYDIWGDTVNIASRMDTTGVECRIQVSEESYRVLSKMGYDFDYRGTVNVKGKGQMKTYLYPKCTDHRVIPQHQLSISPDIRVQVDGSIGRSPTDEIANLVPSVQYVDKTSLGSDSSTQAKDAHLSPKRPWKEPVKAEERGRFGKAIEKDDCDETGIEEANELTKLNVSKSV
# mammalian sAC = target: T3, mammalian sAC (Homo sapiens, UniProt Q96PN6); assay: Activity assay with purified, recombinant mammalian sAC; assay type: biochemical, human or rat; details: dose-response curve
# T3 sequence (Q96PN6 1-469): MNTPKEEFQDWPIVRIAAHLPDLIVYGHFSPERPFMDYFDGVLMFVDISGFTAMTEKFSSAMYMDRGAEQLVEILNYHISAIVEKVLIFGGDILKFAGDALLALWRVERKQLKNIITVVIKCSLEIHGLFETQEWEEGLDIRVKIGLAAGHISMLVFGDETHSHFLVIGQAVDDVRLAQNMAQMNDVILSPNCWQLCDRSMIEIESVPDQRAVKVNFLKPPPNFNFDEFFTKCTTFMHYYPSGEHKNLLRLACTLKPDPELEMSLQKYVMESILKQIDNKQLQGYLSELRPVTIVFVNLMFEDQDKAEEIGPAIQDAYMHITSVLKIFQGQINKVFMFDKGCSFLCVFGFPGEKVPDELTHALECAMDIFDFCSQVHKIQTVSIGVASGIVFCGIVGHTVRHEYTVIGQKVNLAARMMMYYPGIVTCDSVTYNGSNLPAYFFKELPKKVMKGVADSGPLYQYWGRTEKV
# AC2 = AC2 (Homo sapiens, UniProt Q08462)
# Chain of AC2 (Q08462 whole entry): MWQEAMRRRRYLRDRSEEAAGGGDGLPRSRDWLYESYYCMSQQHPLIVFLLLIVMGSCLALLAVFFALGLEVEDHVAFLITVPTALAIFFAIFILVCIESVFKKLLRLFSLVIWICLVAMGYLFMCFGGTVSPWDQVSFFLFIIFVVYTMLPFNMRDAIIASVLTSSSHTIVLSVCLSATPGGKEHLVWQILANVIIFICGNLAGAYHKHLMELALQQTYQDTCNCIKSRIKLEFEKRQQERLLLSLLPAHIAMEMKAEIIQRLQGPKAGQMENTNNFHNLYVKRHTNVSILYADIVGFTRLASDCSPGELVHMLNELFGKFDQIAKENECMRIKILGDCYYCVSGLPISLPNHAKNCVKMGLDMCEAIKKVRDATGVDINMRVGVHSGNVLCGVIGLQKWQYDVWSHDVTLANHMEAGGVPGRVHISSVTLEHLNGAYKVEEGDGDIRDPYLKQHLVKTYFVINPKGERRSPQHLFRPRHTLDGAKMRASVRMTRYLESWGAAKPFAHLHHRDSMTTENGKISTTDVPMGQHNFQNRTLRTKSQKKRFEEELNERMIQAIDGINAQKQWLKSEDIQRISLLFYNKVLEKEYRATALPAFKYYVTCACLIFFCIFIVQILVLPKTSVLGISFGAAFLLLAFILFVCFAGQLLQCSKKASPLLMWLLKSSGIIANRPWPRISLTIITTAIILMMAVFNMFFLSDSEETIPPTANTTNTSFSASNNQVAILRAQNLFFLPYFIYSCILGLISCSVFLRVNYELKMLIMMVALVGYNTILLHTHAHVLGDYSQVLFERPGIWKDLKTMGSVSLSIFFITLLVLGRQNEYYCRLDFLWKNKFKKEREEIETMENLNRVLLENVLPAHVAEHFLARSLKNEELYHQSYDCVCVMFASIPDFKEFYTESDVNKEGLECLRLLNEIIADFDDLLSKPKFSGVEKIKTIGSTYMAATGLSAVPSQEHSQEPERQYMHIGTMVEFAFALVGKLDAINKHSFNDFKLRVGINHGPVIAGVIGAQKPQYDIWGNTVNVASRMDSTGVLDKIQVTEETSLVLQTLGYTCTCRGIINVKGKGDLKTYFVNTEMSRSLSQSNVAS
# CyaC [4] = target: T1, CyaC; assay: biochemical; details: read-out: IC50 against CyaC in vitro (estimated)
# T1 sequence (O32393 998-1202 limits assumed): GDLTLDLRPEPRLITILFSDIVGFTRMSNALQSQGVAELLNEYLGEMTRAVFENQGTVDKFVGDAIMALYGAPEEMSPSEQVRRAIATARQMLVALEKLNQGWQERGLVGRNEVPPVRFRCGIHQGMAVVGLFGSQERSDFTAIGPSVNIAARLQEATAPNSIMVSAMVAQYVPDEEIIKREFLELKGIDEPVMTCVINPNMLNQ
structure (smiles),measurement,setting,value
"C[C@H]1O[C@@H](n2cnc3c(N)ncnc32)C[C@@H]1OP(=O)(O)OP(=O)(O)OP(=O)(O)O [2′,5′-didesoxy-3′-ATP]",IC50,human sAC,700 nM
"C[C@]12CC[C@@H]3c4cc(O)c(O)cc4CC[C@H]3[C@@H]1CC[C@@H]2O [Compound 1, 2-hydroxy-17β-estradiol]",Mode of inhibition with respect to ATP (reported),CyaC [1],noncompetitive inhibitor
"C[C@]12CC[C@H]3[C@@H](CCC4=CC(=O)CC[C@@]43C)[C@@H]1CC[C@@H]2C(=O)COS(=O)(=O)c1ccc(Br)cc1 [Compound 2, 3,20-dioxopregn-4-en-21-yl 4-bromobenzenesulfonate]",Inhibition of forskolin-stimulated AC activity in HEK293T whole cell extracts,[2],no significant inhibition
same,Vmax of CyaC,CyaC [3]; 1 μM inhibitor,0.38 nmol/mg/min
same,Vmax of CyaC,CyaC [3]; […] inhibitor,0.29 nmol/mg/min
same,Vmax of CyaC,CyaC [3]; […] μM inhibitor,0.08 nmol/mg/min
same,Mode of inhibition with respect to ATP,CyaC [3]; various substrate concentrations at fixed inhibitor amounts,noncompetitive inhibitor
same,Inhibition of AC1 activity,AC1,did not significantly inhibit
same,Inhibition of AC5 activity,AC5,did not significantly inhibit
same,Effect on basal AC9 activity,AC9,did not appreciably affect
"O=C(O)c1cc2c(cc1S(=O)(=O)O)C1C(C3C2C2(Cl)C(Cl)=C(Cl)C3(Cl)C2(Cl)Cl)C2(Cl)C(Cl)=C(Cl)C1(Cl)C2(Cl)Cl (stereo not drawn) [Compound 3, 1,2,3,4,5,6,7,8,13,13,14,14-dodecachloro-1,4,4a,4b,5,8,8a, 12b-octahydro-11-sulfo-1,4:5,8-dimethanotriphenylene-10-carboxylic acid]",Hill coefficient for sAC inhibition,mammalian sAC,2.0
same,Inhibition of AC1 activity,AC1,only moderate inhibition
same,Inhibition of basal AC2 activity,"AC2; 100 μM compound, basal, transfected HEK293T lysate",only moderate inhibition
same,Effect on AC2 in the presence of forskolin,"AC2; in the presence of forskolin, data not shown",stimulation
same,Inhibition of AC5 activity,AC5,only moderate inhibition
same,Effect on basal AC9 activity,AC9,only moderate inhibition
"BrC(c1cccc2ccccc12)c1cccc2ccccc12 [Compound 4, 1-(bromo(1-naphthyl)methyl)naphthalene]",potency estimated from few doses,CyaC [4],~200 µM
"C[C@H]1[C@H](C)CC[C@]2(C(=O)O)CC[C@]3(C)C(=CC[C@@H]4[C@@]5(C)C[C@@H](O)[C@H](O)[C@@](C)(CO)[C@@H]5[C@H](O)C[C@]43C)[C@H]12 [Compound 8, 2,3,6,23-tetrahydroxyurs-12-en-28-oic acid]",potency estimated from few doses,CyaC [4],~100 µM
